Laboratory results published in patent publication US5969017A, “Methods of treating or preventing cardiac arrhythmia” (Merck & Co., Inc., priority 1997, dated 1999).
Entries after “also recorded” stand apart in the source; their conditions may differ. Read-outs that look alike come from different tables or passages of the source.

Biological target: T1, hKv1.5 expressed in Chinese Hamster Ovary (CHO) cells (Homo sapiens, UniProt P22460)
T1 construct: expressed in transfected cells; host or cells: CHO-K1 cells (CHOKI in source), pcDNAI/Neo plasmid, G418-selected clones
Test: Voltage clamp measurement of hKv1.5 block (rested state, use-dependent, rate-dependent) in CHO cells
Type: cell-based
Conditions: for Rate-Dpdnt Ratio: 3 Hz vs 1 Hz, last pulse, <1 = rate-dependent; for Use-Dpdnt Ratio: 10th vs 1st pulse @ 1 Hz, <1 = use-dependent; for selective blockade of hKv1.5 (in words): relative to other cardiac K+ channels; for rate-dependent ratio for block of hKv1.5 (bound) / use-dependent ratio for block of hKv1.5 (bound): summary of Table 1
Method: A. Measurement of Kv1.5 in CHO cells
Expression of Kv1.5 in CHO Cells
A cDNA encoding Kv1.5, isolated from a human fetal heart library, was subcloned into pcDNAI/Neo (Invitrogen) as a Hind III--Xba I fragment.
CHOKI cells were plated at 2.7×10^4 cells/60 mm dish and incubated at 37° C., in a 5% CO2 environment for three days. Cells were then washed twice and covered with 3 ml of OptiMEM medium (Gibco). Plasmid/DOTAP solution (consisting of […] of Kv1.5 in pcDNAI/Neo and […] DOTAP transfection reagent (Boehringer Mannheim) in 1 ml of OptiMEM) was added dropwise to each plate while swirling. Plates were incubated overnight and the media then changed to 5 mls of F12 (Gibco) supplemented with 10% FBS (Sigma), 1,000 U/ml penicillin […] streptomycin (Gibco), and 2 mM glutamine (Gibco). After two more days, the cells were trypsinized and replated on 100 mm dishes in supplemented F12 media including 1 mg/ml G418 (Gibco). The medium was changed daily until nontransfected cells were killed. Cell lines were grown from individual clones and tested for expression of Kv1.5 using both the ^86 RB efflux assay and voltage clamp protocols. […] These cells were maintained in culture and on each experimental day were freshly isolated by mild trypsinization.
The patch-clamp technique was used to record ionic currents in the whole-cell configuration. Patch pipettes were obtained using a two stage puller from square bore (1.0 mm o.d.) borosillicate capillary tubing. Pipettes were filled with the following solution (in mM/L): 110 K-Gluconate or K-Aspartate, 20 KCl, 5 MgATP, 5 EGTA, 5-10 HEPES, pH 7.2. The electrodes had tip resistances ranging from 3 to 10 Mohm when filled with this solution. Following seal formation, the membrane was ruptured by gentle suction to establish the whole-cell configuration, and negative pressure was maintained on the pipette using a 1 ml gas-tight syringe attached via air tight tubing to the suction port of the microelectrode holder. […] Currents were sampled at 5 kHz using an Axopatch 200 A amplifier (Axon Instruments) or a List EPC-7 clamp amplifier (List Electronic) and were low pass filtered at 1 kHz.
Measurements of Kv1.5 Expressed Currents:
Kv1.5 currents were elicited by 150 ms depolarizing test pulses to +40 mV from a holding potential of -80 mV. The effects of test agents were assessed at steady-state. Data was analyzed as % block from control current amplitude. The amplitude of Kv1.5 was measured as the amplitude of the time-dependent net outward current at the end of the test pulse, relative to the holding current level. […] All experiments were performed at room temperature (22-24° C.).
C. Measurement of Use-Dependent and Rate-Dependent Block.
Pulses were applied in 10 second long trains delivered after 30 second rest intervals at frequencies of 1 Hz (10 pulses) or 3 Hz (30 pulses). Percent block of the current is defined as the % decrease in the current amplitude produced by an agent during a given pulse relative to the control current amplitude for that pulse. Rested-state block is the block of the current during the first pulse in a train following the 30 sec rest period. Use-dependent block is block that occurs to a progessively greater extent with each successive depolarization in a train or sequence of pulses or depolarizations delivered at a given rate or frequency. Thus, during a train of 10 depolarizations at frequency of 1 Hz, use-dependent block is assessed as the ratio of the amount of block for the 10th pulse relative to block for the 1st pulse (rested state block) of the train. Rate-dependent block is block that occurs to a greater extent or preferentially at faster rates of depolarization or heart rates. Thus, rate-dependent block is assessed as the ratio of the amount of block of the current during the last pulse of the 10 sec train at 3 Hz vs. 1 Hz.

[1] = 30 nM, 1st pulse @ 1 Hz, +40 mV from -80 mV, read-out: Average % Block, Rested State, 1st pulse
[2] = 30 nM, 10th pulse @ 1 Hz, read-out: Average % Block, Use-Dpdnt, 10th pulse
[3] = 30 nM, 30th pulse @ 3 Hz, read-out: Average % Block, Rate-Dpdnt, 30th pulse
[4] = 100 nM, 1st pulse @ 1 Hz, read-out: Average % Block, Rested State, 1st pulse
[5] = 100 nM, 10th pulse @ 1 Hz, read-out: Average % Block, Use-Dpdnt, 10th pulse
[6] = 100 nM, 30th pulse @ 3 Hz, read-out: Average % Block, Rate-Dpdnt, 30th pulse
[7] = 300 nM, 1st pulse @ 1 Hz, read-out: Average % Block, Rested State, 1st pulse
[8] = 300 nM, 10th pulse @ 1 Hz, read-out: Average % Block, Use-Dpdnt, 10th pulse

T1 sequence (P22460 whole entry): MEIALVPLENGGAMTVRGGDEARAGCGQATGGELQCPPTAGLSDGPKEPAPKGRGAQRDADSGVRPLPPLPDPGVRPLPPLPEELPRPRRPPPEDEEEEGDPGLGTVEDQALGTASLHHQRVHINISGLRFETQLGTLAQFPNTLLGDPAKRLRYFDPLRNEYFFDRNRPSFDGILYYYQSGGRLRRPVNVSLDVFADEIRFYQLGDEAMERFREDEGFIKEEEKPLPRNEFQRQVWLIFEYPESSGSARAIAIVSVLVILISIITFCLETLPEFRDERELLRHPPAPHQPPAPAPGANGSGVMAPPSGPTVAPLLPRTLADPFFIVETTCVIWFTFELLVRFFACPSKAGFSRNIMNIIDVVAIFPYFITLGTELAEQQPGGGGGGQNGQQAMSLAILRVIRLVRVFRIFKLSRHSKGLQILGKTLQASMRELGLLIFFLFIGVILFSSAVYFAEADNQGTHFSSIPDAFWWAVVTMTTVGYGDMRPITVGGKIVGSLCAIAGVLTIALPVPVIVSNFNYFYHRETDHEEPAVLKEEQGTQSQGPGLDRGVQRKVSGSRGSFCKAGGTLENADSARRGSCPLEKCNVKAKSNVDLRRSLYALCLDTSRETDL

SMILES | rate-dependent block of hKv1.5 (in words) | use-dependent block of hKv1.5 (in words) | inhibition at 0.03 µM [1] [%] | inhibition at 0.03 µM [2] [%] | inhibition at 0.03 µM [3] [%] | inhibition at 0.1 µM [4] [%] | Rate-Dpdnt Ratio (100 nM) | inhibition at 0.1 µM [5] [%] | Use-Dpdnt Ratio (100 nM) | inhibition at 0.1 µM [6] [%] | selective blockade of hKv1.5 (in words) | rate-dependent ratio for block of hKv1.5 (bound) | use-dependent ratio for block of hKv1.5 (bound) | inhibition at 0.3 µM [7] [%] | inhibition at 0.3 µM [8] [%] | Use-Dpdnt Ratio (300 nM) | further results
COc1ccc(-n2nc(Sc3ccc(Cl)cc3)c(C)c(C#N)c2=O)cc1 [C, 6-(4-Chlorophenylthio)-2-(4-methoxyphenyl)-5-methyl-3-oxo-2,3-dihydropyridazine-4-carbonitrile] | rate-dependent blockers | use-dependentblockade | 6.6 | 15.7 | 38 | 51 | 0.83 | 75.5 | 0.68 | 91.1 | selective blockade | < 1 | < 1 |  |  |  | Rate-Dpdnt Ratio (30 nM): 0.41; Use-Dpdnt Ratio (30 nM): 0.42
CC1CCC(C(C)C)C(P(=O)(c2ccccc2)c2ccccc2)C1 (stereo not drawn) [A, (2-Isopropyl-5-methylcyclohexyl)diphenylphosphine oxide] | rate-dependent blockers; also recorded: strong rate-dependent profile | use-dependentblockade | 21.2 | 38.5 | 57.5 | 32.1 |  | 64.6 |  | 82.9 |  |  |  |  |  |  | use-dependent block of hKv1.5 (in words) (listed as (2-isopropyl-5-methylcyclohexyl) diphenyl-phosphine oxide): strong use-dependent profile
Cc1cc(C)c(CP(=O)(c2ccccc2)c2ccccc2)c(-c2ccc(F)c(C)c2)c1 [B, 2-(Diphenylphosphinylmethyl)-4'-fluoro-3,5,3'-trimethyl-biphenyl] | rate-dependent blockers | use-dependentblockade |  |  |  | 23.3 | 0.66 | 29.6 | 0.79 | 44.9 | selective blockade | < 1 | < 1 | 43.5 | 56.6 | 0.77 | Rate-Dpdnt Ratio (300 nM): 0.84; inhibition at 0.3 µM (300 nM, 30th pulse @ 3 Hz, read-out: Average % Block, Rate-Dpdnt, 30th pulse): 67.5%
COc1ccc(-n2nc(Sc3ccc(C)cc3)c(C)c(C#N)c2=O)cc1 [D] |  | use-dependentblockade |  |  |  | 31.1 |  | 34 | 0.91 |  | selective blockade |  | < 1 | 52 | 62.5 | 0.83 | 
